Measured values reported in patent publication US6787562B2, “Substituted aryl and heteroaryl compounds as E-type prostaglandin antagonists” (Zeneca Ltd., priority 1995, dated 2004).

How the values were obtained:
dog fundus = settings: cited from earlier work
guinea pig ileum = settings: cited from earlier work

SMILES | melting point [°C] | effect of PGE2 on tissue blocked (dog fundus) | effect of PGE2 on tissue blocked (guinea pig ileum)
O=C(O)c1ccc(CCc2ccccc2CCc2ccccc2)cc1O [Example 33, 2-Hydroxy-4-[(2-phenethyl)phenethyl]benzoic Acid] | 134 to 137 |  | 
O=C(O)c1ccc(CCCc2ccccc2Cc2ccccc2)cc1 [Example 34, 4-[3-(2-benzylphenyl)propyl]benzoic Acid] | 135 to 136 |  | 
CCN(Cc1ccccc1Oc1ccccc1)c1ccc(C(=O)O)nn1 [Example 12, 6-(N-Ethyl-N-(2-phenoxybenzyl)amino)pyridazine-3-carboxylic Acid] | 70 to 75 |  | 
O=C(O)c1ccc(SCc2ccccc2OCc2ccccc2)cc1 [Example 18, 4-[2-Benzyloxybenzylthio]benzoic Acid] | 144 |  | 
O=C(O)c1ccc(OCc2ccccc2OCc2ccccc2)cc1 [Example 21, 4-(2-(Benzyloxy)benzyloxy)benzoic Acid] | 176.8 to 178.8 |  | 
CC(Oc1ccc(C(=O)O)cc1)c1ccccc1OCc1ccccc1 (centres unmarked) [Example 22, 4-(1-(2-(Benzyloxy)phenyl)ethoxy)benzoic Acid] | 108 |  | 
CCN(Cc1ccccc1Oc1ccccc1)c1ccc(C(=O)O)cn1 [Example 13, 2-(N-ethyl-N-(2-phenoxybenzyl)amino)pyridine-5-carboxylic Acid] | 170.5 to 172 |  | 
CC(Nc1cc(Br)ccc1OCc1ccccc1)c1ccc(C(=O)O)cc1 (centres unmarked) [Example 39, 4-[1-(N-(2-Benzyloxy-5-bromophenyl)-amino)ethyl]benzoic Acid] | 186.5 to 187 |  | 
O=C(O)c1ccc(CCCc2ccccc2Sc2ccccc2)cc1 [Example 32, 4-[3-(2-(phenylthio)phenyl)propyl]benzoic Acid] | 90 to 91 |  | 
CC(=O)NNC(=O)N1Cc2ccccc2Oc2ccc(Cl)cc21 [SC-19220] |  | blocks the effect of PGE2 | blocks the effect of PGE2
O=C(O)c1ccc(NCc2cc(Br)ccc2CCc2ccccc2)cc1 [Example 4, 4-[N-(5-Bromo-2-(phenethyl)benzyl)amino]Benzoic Acid] | 126 to 127 |  | 
O=C(Nc1cccnc1)c1ccc(SCc2ccccc2OCc2ccccc2)cc1 [Example 19, N-(3-Pyridyl)-4-[2-benzyloxybenzylthio]benzamide] | 108 |  | 
O=C(O)c1ccc(OCc2ccccc2CCc2ccccc2)cc1 [Example 23, 4-(2-(phenethyl)benzyloxy)benzoic Acid] | 178 to 180 |  | 
O=C(O)c1ccc(CNc2cc(Br)ccc2OCc2ccccc2)cc1 [Example 37, 4-[N-(2-Benzyloxy-5-bromophenyl)aminomethyl]benzoic Acid] | 216 to 217 |  | 
CCN(Cc1ccc(C(=O)O)cc1)c1cc(Br)ccc1OCc1ccccc1 [Example 38, 4-[N-(2-Benzyloxy-5-bromophenyl)-N-ethylaminomethyl]benzoic Acid] | 94.5 to 95 |  | 
CC(c1ccc(C(=O)O)cc1)N(C)c1ccc(Br)cc1OCc1ccccc1 (centres unmarked) [Example 40, 4-[1-(N-(2-Benzyloxy-4-bromophenyl)-N-methylamino)ethyl]benzoic Acid] | 181.5 to 182 |  | 
